Consider 25 molecules from patent publication US20110105509A1 (Wyeth, LLC, priority 2009, published 2011).

The assay concerns the target T1, CRTH2 (Homo sapiens, UniProt Q9Y5Y4).
T1 construct: expressed in transfected cells; host or cells: CHO cells
T1 sequence (Q9Y5Y4 1-395): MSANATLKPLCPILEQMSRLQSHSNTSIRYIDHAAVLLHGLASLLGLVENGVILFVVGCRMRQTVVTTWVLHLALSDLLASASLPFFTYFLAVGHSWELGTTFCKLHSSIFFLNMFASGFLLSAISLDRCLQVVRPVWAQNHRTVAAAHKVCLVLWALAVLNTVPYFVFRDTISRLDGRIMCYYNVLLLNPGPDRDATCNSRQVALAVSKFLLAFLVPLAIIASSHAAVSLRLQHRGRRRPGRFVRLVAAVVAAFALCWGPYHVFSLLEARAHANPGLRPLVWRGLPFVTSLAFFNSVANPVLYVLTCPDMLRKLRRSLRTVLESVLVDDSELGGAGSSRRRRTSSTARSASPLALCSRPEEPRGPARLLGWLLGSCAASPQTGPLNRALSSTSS
The assay is described as follows: FRET based competitive immunoassay (cAMP) in CRTH2 expressing CHO cells. Conditions: CRTH2 expressing CHO cells incubated with forskolin and PGD2; Eu3+ cryptate-labeled anti-cAMP and d2-labeled cAMP. The format is cell-based. The protocol:
FRET Assay: To evaluate potency compounds were tested in a FRET based competitive immunoassay in which CRTH2 expressing CHO cells were incubated in the presence of forskolin and PGD2 along with Eu3+ cryptate-labeled anti-cAMP and d2-labeled cAMP.
In turn, `Cc1c(-c2nn(CC3CC3)c(=O)c3ccccc23)c2ccccc2n1CC(=O)O` [Example 176, 2-(3-(3-(cyclopropylmethyl)-4-oxo-3,4-dihydrophthalazin-1-yl)-2-methyl-1H-indol-1-yl)acetic acid] displayed a half-maximal inhibitory concentration (IC50) of 0.123 µM.

In turn, `Cc1c(-c2ccc(=O)n(Cc3ccc(Cl)c(F)c3)n2)c2cc(Cl)ccc2n1CC(=O)O` [Example 8, 2-(5-Chloro-3-(1-(4-chloro-3-fluorobenzyl)-6-oxo-1,6-dihydropyridazin-3-yl)-2-methyl-1H-indol-1-yl)acetic acid] came in with a half-inhibitory concentration (IC50) of 0.005 µM.

As for `Cc1ccc(Cn2nc(-c3c(C)n(CC(=O)O)c4ccc(Cl)cc34)ccc2=O)cc1` [Example 146, 2-(5-chloro-2-methyl-3-(1-(4-methylbenzyl)-6-oxo-1,6-dihydropyridazin-3-yl)-1H-indol-1-yl)acetic acid], the half-maximal inhibitory concentration (IC50) came out at 0.074 µM.

`Cc1c(Cc2ccc(=O)n(Cc3c(F)cccc3F)n2)c2cc(F)ccc2n1CC(=O)O` [Example 338, (3-{[1-(2,6-difluorobenzyl)-6-oxo-1,6-dihydropyridazin-3-yl]methyl}-5-fluoro-2-methyl-1H-indol-1-yl)acetic acid]: the concentration for half-maximal inhibition (IC50) was determined as 0.005 µM.

For `Cc1c(Cc2ccc(=O)n(Cc3ccccc3)n2)c2ccccc2n1CC(=O)O` [Example 77, 2-(3-((1-Benzyl-6-oxo-1,6-dihydropyridazin-3-yl)methyl)-2-methyl-1H-indol-1-yl)acetic acid], the IC50 was 0.032 µM.

In the case of `Cc1nnc(Cn2nc(-c3c(C)n(CC(=O)O)c4ccc(Cl)cc34)c3ccccc3c2=O)[nH]1` [Example 259b, 2-(5-chloro-2-methyl-3-(3-((5-methyl-4H-1,2,4-triazol-3-yl)methyl)-4-oxo-3,4-dihydrophthalazin-1-yl)-1H-indol-1-yl)acetic acid], the half-inhibitory concentration (IC50) was determined as 0.026 µM.

Turning to `Cc1c(Cc2ccc(=O)n(Cc3ccc(F)cc3F)n2)c2cc(F)ccc2n1CC(=O)NS(C)(=O)=O` [Example 320, 2-(3-((1-(2,4-difluorobenzyl)-6-oxo-1,6-dihydropyridazin-3-yl)methyl)-5-fluoro-2-methyl-1H-indol-1-yl)-N-(methylsulfonyl)acetamide], the concentration for half-maximal inhibition (IC50) was above 1 µM.

On to `Cc1c(-c2nn(C)c(=O)c3ccccc23)c2cc(Cl)ccc2n1CC(=O)O` [Example 105, 2-(5-chloro-2-methyl-3-(3-methyl-4-oxo-3,4-dihydrophthalazin-1-yl)-1H-indol-1-yl)-acetic acid], for which the half-maximal inhibitory concentration (IC50) came to 0.121 µM.

Regarding `Cc1c(Cc2ccc(=O)n(Cc3ccc(F)cc3)n2)c2cc(F)ccc2n1CC(=O)O` [Example 342, (3-{[1-(4-fluorobenzyl)-6-oxo-1,6-dihydropyridazin-3-yl]methyl}-5-fluoro-2-methyl-1H-indol-1-yl)acetic acid], the 50% inhibitory concentration (IC50) was determined as 0.013 µM. This IC50 is about 9.3-fold lower than that of the molecule before.

In turn, `Cc1c(-c2ccc(=O)n(CCCC(F)(F)F)n2)c2cc(F)ccc2n1CC(=O)O` [Example 163, 2-(5-fluoro-2-methyl-3-(6-oxo-1-(4,4,4-trifluorobutyl)-1,6-dihydropyridazin-3-yl)-1H-indol-1-yl)acetic acid] showed a concentration for half-maximal inhibition (IC50) of 0.865 µM.

The molecule `Cc1c(-c2ccc(=O)n(Cc3ccccc3)n2)c2cc(F)cc(Cl)c2n1CC(=O)O` [Example 231, 2-(3-(1-benzyl-6-oxo-1,6-dihydropyridazin-3-yl)-7-chloro-5-fluoro-2-methyl-1H-indol-1-yl)acetic acid] returned an IC50 of 0.401 µM.

With `Cc1c(Cc2ccc(=O)n(Cc3cc(F)ccc3F)c2)c2ccccc2n1CC(=O)O` [Example 25, 2-(3-((1-(2,5-Difluorobenzyl)-6-oxo-1,6-dihydropyridin-3-yl)methyl)-2-methyl-1H-indol-1-yl)acetic acid], the IC50 worked out at 0.007 µM.

For `Cc1c(-c2nn(Cc3ccccn3)c(=O)c3ccccc23)c2cc(F)ccc2n1CC(=O)O` [Example 136, 2-(5-fluoro-2-methyl-3-(4-oxo-3-(pyridin-2-ylmethyl)-3,4-dihydrophthalazin-1-yl)-1H-indol-1-yl)acetic acid], the IC50 came out at 0.004 µM.

For the molecule `Cc1c(-c2nn(Cc3nc4cc(Cl)ccc4s3)c(=O)c3ccccc23)c2cc(F)ccc2n1CC(=O)O` [Example 208, 2-(3-(3-((5-chlorobenzo[d]thiazol-2-yl)methyl)-4-oxo-3,4-dihydrophthalazin-1-yl)-5-fluoro-2-methyl-1H-indol-1-yl)acetic acid], the IC50 was found to be 0.003 µM.

The molecule `Cc1c(-c2cn(CC(C)(C)O)c(=O)c3ccccc23)c2cc(F)ccc2n1CC(=O)O` [Example 254, 2-(5-fluoro-3-(2-(2-hydroxy-2-methylpropyl)-1-oxo-1,2-dihydroisoquinolin-4-yl)-2-methyl-1H-indol-1-yl)acetic acid] gave an IC50 of 0.015 µM.

Turning to `Cc1c(-c2ccc(=O)n(Cc3ccc4ccccc4n3)n2)c2cc(Cl)ccc2n1CC(=O)O` [Example 144, 2-(5-chloro-2-methyl-3-(6-oxo-1-(quinolin-2-ylmethyl)-1,6-dihydro-pyridazin-3-yl)-1H-indol-1-yl)acetic acid], the half-inhibitory concentration (IC50) stood at 0.011 µM. The IC50 values of the last two molecules are within 1.5-fold of each other.

Molecule `Cc1c(Cc2ccc(=O)n(C(C)C)c2)c2ccccc2n1CC(=O)O` [Example 22] gave a half-inhibitory concentration (IC50) of 0.765 µM. This IC50 is about 70-fold higher than that of the molecule before.

`Cc1c(-c2ccc(=O)n(CC(F)(F)F)c2)c2cc(F)ccc2n1CC(=O)O` [Example 280, 2-(5-Fluoro-2-methyl-3-(6-oxo-1-(2,2,2-trifluoroethyl)-1,6-dihydropyridin-3-yl)-1H-indol-1-yl)acetic acid]: the IC50 was found to be 0.117 µM.

For `Cc1c(-c2ccc(=O)n(Cc3cc(F)c(F)cc3F)n2)c2cc(Cl)ccc2n1CC(=O)O` [Example 69, 2-(5-chloro-2-methyl-3-(6-oxo-1-(2,4,5-trifluorobenzyl)-1,6-dihydropyridazin-3-yl)-1H-indol-1-yl)acetic acid], the IC50 stood at 0.007 µM.

`Cc1c(-c2nn(Cc3ccccc3)c(=O)c3ccccc23)c2ccccc2n1CCO` [Example 52, 2-Benzyl-4-(1-(2-hydroxyethyl)-2-methyl-1H-indol-3-yl)phthalazin-1(2H)-one] displayed an IC50 above 2 µM.

`Cc1c(-c2ccc(=O)n(Cc3cc(F)c(F)cc3F)n2)c2ccccc2n1CC(=O)O` [Example 187, 2-(2-methyl-3-(6-oxo-1-(2,4,5-trifluorobenzyl)-1,6-dihydropyridazin-3-yl)-1H-indol-1-yl)acetic acid] had a concentration for half-maximal inhibition (IC50) of 0.075 µM.

Molecule `Cc1c(-c2cn(Cc3ccccc3)c(=O)c3c2CCCC3)c2cc(F)ccc2n1CC(=O)O` [Example 88, 2-(3-(2-benzyl-1-oxo-1,2,5,6,7,8-hexahydroisoquinolin-4-yl)-5-fluoro-2-methyl-1H-indol-1-yl)acetic acid] registered an IC50 of 0.197 µM.

The molecule `Cc1c(-c2nn(Cc3ccncc3F)c(=O)c3ccccc23)c2cc(F)ccc2n1CC(=O)O` [Example 138, 2-(5-fluoro-3-(3-((3-fluoropyridin-4-yl)methyl)-4-oxo-3,4-dihydrophthalazin-1-yl)-2-methyl-1H-indol-1-yl)acetic acid] yielded an IC50 of 0.005 µM.

In the case of `COc1ccc2c(c1)c(-c1nn(Cc3ccccc3)c(=O)c3ccccc13)c(C)n2CC(=O)O` [Example 16, 2-(3-(3-Benzyl-4-oxo-3,4-dihydrophthalazin-1-yl)-5-methoxy-2-methyl-1H-indol-1-yl)acetic acid], the concentration for half-maximal inhibition (IC50) turned out to be 0.031 µM.

`Cc1c(-c2ccc(=O)n(Cc3ccc(Cl)c(F)c3)n2)c2cc(F)ccc2n1CC(=O)O` [Example 12, 2-(3-(1-(4-chloro-3-fluorobenzyl)-6-oxo-1,6-dihydropyridazin-3-yl)-5-fluoro-2-methyl-1H-indol-1-yl)acetic acid] had a half-maximal inhibitory concentration (IC50) of 0.006 µM.
